Source: article PMC12011786, “Pharmacokinetics and stability of methoxyflavones from Kaempferia parviflora in Thai native roosters” (Frontiers in Veterinary Science, 2025)
Read-outs that look alike come from different tables or passages of the source.

Assay: Pharmacokinetics of methoxyflavones after single oral administration of KP ethanolic extract in roosters
Assay type: in vivo, Thai native roosters (Pradu Hang Dum breed)
Details: for AUC / Cmax / Tmax / half-life / k el: male, Thai native Pradu Hang Dum, whole blood; for AUC: po; for Cmax / Tmax / half-life / Cl / Vd: n = 9; for k el: n = 9, read-out: Ke (converted)
Description: Twenty-seven male Thai native Pradu Hang Dum breed roosters were selected for this study. The sample size was calculated by using the G*power program with the following parameters: α = 0.05, power of test = 0.8, standard deviation = 0.05, and effect size = 0.6. The sample size was nine in each group. […] All animals were obtained from the Research and Development Network Center of Animal Breeding and Omics at Khon Kaen University, Thailand. The roosters were housed in separate cages (60 × 45 × 45 cm) within an open-house system. They were fed a daily commercial diet of 130 g, containing 16% crude protein. Water was provided ad libitum throughout the study.
Blood samples (1 mL) were collected from the brachial vein of each rooster after gentle restraint. The collected blood was immediately transferred into a 1.5 mL microtube containing 10% heparin and gently inverted several times to ensure thorough mixing and prevent clot formation.
The roosters were randomly divided into three groups (n = 9 per group) and orally administered KP extract at different doses: 100, 150, and 200 mg/kg of body weight. The KP extract was prepared by dissolving in a solution of 28% propylene glycol, 35% polyethylene glycol 400, 2% ethanol, and deionized water (added until the total volume was 100%). For the method of animal administration, two individuals administered the KP extract to the chickens. One person restrained each chicken by holding its wings and legs, while the other administered the extract orally via a 10 mL syringe, according to body weight.
After oral administration, blood samples were collected at certain time intervals (0.5, 1, 2, 4, 6, and 12 h). The samples were then stored at −20°C until further analysis.
To extract methoxyflavones from the blood samples, all samples were extracted by liquid–liquid extraction two times using acetonitrile. Each sample was vortexed for 2 min and sonicated for 5 min with 1 mL of acetonitrile. After centrifugation at 2,000 × g for 2 min, the supernatant was transferred to clean microtubes, evaporated to dryness, and reconstituted with 200 μL of methanol. The samples were then filtered through 0.45-μm syringe filters and analyzed using an HPLC assay. Pharmacokinetic parameters were determined using the PKSolver add-in program ([21]).

[1] = 100 mg/kg, single oral KP extract 100 mg/kg, blood, n = 9, read-out: AUC
[2] = 150 mg/kg, single oral KP extract 150 mg/kg, blood, n = 9, read-out: AUC
[3] = 200 mg/kg, range over oral KP extract doses 100, 150, 200 mg/kg, read-out: area under the curve (AUC)
[4] = 200 mg/kg, single oral KP extract 200 mg/kg, blood, n = 9, read-out: AUC
[5] = single oral KP extract 100 mg/kg, blood
[6] = single oral KP extract 150 mg/kg, blood
[7] = single oral KP extract 200 mg/kg, blood

SMILES	AUC [1]	AUC [2]	AUC [3]	AUC [4]	Cmax [5]	Tmax [5]	half-life [5]	k el [5]	Cmax [6]	Tmax [6]	half-life [6]	k el [6]	Cmax [7]	Tmax [7]	half-life [7]	k el [7]	Cl [5]	Vd [5]	Cl [6]	Vd [6]	also measured
COc1cc(OC)c2c(=O)cc(-c3ccccc3)oc2c1 [DMF, 5,7-dimethoxyflavone]	1020 ± 230 ng·h/mL	1450 ± 170 ng·h/mL	1020 to 1680 ng·h/mL	1680 ± 570 ng·h/mL	340 ± 100 ng/mL	1.17 ± 0.37 h	2.56 ± 0.49 h	7.78e-05 s⁻¹	500 ± 50 ng/mL	1.33 ± 0.49 h	2.57 ± 0.2 h	8.33e-05 s⁻¹	540 ± 80 ng/mL	1.17 ± 0.37 h	2.6 ± 0.28 h	9.17e-05 s⁻¹	137 ± 29.7 mL/min/kg	18.9 ± 1.78 L/kg	120 ± 27.7 mL/min/kg	19.1 ± 1.78 L/kg	Cl [7]: 123 ± 36.8 mL/min/kg; Vd [7]: 19.5 ± 2.28 L/kg
COc1cc(OC)c2c(=O)c(OC)c(-c3ccc(OC)c(OC)c3)oc2c1 [PMF, 3,5,7,3′,4′-pentamethoxyflavone]	2620 ± 340 ng·h/mL	3010 ± 420 ng·h/mL	2620 to 3060 ng·h/mL	3060 ± 570 ng·h/mL	640 ± 60 ng/mL	1.83 ± 0.37 h	2.03 ± 0.34 h	9.72e-05 s⁻¹	810 ± 120 ng/mL	1.8 ± 0.4 h	2.24 ± 0.71 h	0.000111 s⁻¹	830 ± 110 ng/mL	1.83 ± 0.37 h	2.27 ± 0.93 h	0.000114 s⁻¹	41 ± 7 mL/min/kg	7.78 ± 0.63 L/kg	47.2 ± 12.7 mL/min/kg	8.24 ± 1.14 L/kg	Cl [7]: 53.7 ± 8.67 mL/min/kg; Vd [7]: 8.69 ± 1.25 L/kg
COc1ccc(-c2cc(=O)c3c(OC)cc(OC)cc3o2)cc1 [TMF, 5,7,4′-trimethoxyflavone]	1200 ± 150 ng·h/mL	1360 ± 150 ng·h/mL	1200 to 1450 ng·h/mL	1450 ± 120 ng·h/mL	380 ± 90 ng/mL	1.25 ± 0.56 h	2.15 ± 0.71 h	8.33e-05 s⁻¹	530 ± 60 ng/mL	1.25 ± 0.4 h	2.01 ± 0.31 h	9.44e-05 s⁻¹	590 ± 60 ng/mL	1.33 ± 0.47 h	2.03 ± 0.37 h	0.000103 s⁻¹	76.3 ± 9.83 mL/min/kg	17.8 ± 5.61 L/kg	97.3 ± 11.2 mL/min/kg	20 ± 3.32 L/kg	Cl [7]: 82.5 ± 26.3 mL/min/kg; Vd [7]: 12.7 ± 1.73 L/kg
